# Source: patent publication US11213499B1, “Use of 3,3′-diselenodipropionic acid (DSePA) as an anticancer agent” (Secretary, Department of Atomic Energy, priority 2020, dated 2022)
# Like-named read-outs stand apart in the source and are kept apart here.
# Key:
# [1] = system: H460 (Human non-small cell lung adenocarcinoma); test: SRB/MTT anti-proliferative assay, H460; type: cell-based; settings: 48 hours treatment, read-out: GI50 (Concentration of drug causing 50% inhibition of cell growth)
# Procedure: The anticancer effect of DSePA was evaluated using a panel of twenty-five human cancer cell lines of different tissue origins. Cells were treated with the increasing concentrations (0.1-100 μM) of DSePA for 48 h and viability was monitored by (Sulforhodamine B) SRB assay or MTT assay.
# Cell culture and DSePA synthesis—DSePA was synthesized and characterized as described in our previous reports. Cell lines were cultured in growth medium (DMEM/RPMI) supplemented with 10% FBS, 100 U/ml penicillin and 100 μg/ml streptomycin at 37° C. in a humidified 5% CO2 environment. The stock solution of DSePA was prepared fresh in cell culture medium and diluted with the same to achieve the desired concentrations.
# SRB/MTT Assay—To evaluate the anti-proliferative effect of DSePA, Cells (˜5×10^3) suspended in 100 μl of complete culture medium were seeded in each well of 96 well plates. The cells were allowed to attach and grow for 24 h, treated with desired concentrations of DSePA dissolved in culture medium for 48 h and then processed for SRB/MTT assay as described in literature. The percentage (%) cytotoxicity was calculated from the decrease in absorbance as compared to that of control group.
# [2] = mice; cited from earlier work
# [3] = rat; cited from earlier work
structure (smiles),measurement,setting,value
"O=C(O)CC[Se][Se]CCC(=O)O [DSePA, 3,3′-diselenodipropionic acid]",GI50,[1],8 µM
same,GI50,"[1]; Homo sapiens, NCI-H460, 48 h",≤ 10 µM
same,estimated median oral Lethal dose (LD50) cut-off,[2],200 mg/kg
same,estimated median oral Lethal dose (LD50) cut-off,[3],25 mg/kg
